Source: paper PMC13280021, “Collateral hypersensitivity between ZY19489 and piperaquine neutralizes PfCRT-mediated drug efflux and Plasmodium falciparum resistance” (Nature Communications, 2025)
Read-outs that look alike come from different tables or passages of the source.

Legend:
[1] = tested on: T1, Plasmodium falciparum Dd2^Dd2crt; experiment: microbe, parasite or virus in culture; set-up: species or system P. falciparum in human red blood cells; asexual blood stage growth inhibition, flow cytometry with SYBR Green I and MitoTracker Deep Red; conditions: DD2, Erythrocyte, 72 h
T1 construct: Dd2
Procedure: Susceptibility to all drugs tested in this study was measured by incubating asynchronous, ABS parasites plated at 0.2% to 0.3% parasitemia (or 0.8% for the poorly growing ZY19489-resistant lines harboring the pfcrt N246H allele) and 1% hematocrit at 37 °C in 96-well plates. The assays were set up across a range of drug concentrations with two-fold dilutions. For the experiments testing for susceptibility of recrudescent parasite lines that emerged in humanized NSG mice to ZY19489, M5717, MMV693183, or ferroquine, parasites were cultured at 2% hematocrit in human O^+ or A^+ RBCs in RPMI-1640 media, supplemented with 25 mM HEPES (Fisher), 50 mg/L hypoxanthine (Sigma Aldrich), 2 mM L-glutamine (Cambridge Isotope Laboratories, Inc.), 0.21% sodium bicarbonate (Sigma Aldrich), 0.5% (w/v) Albumax (Invitrogen), 8% filtered, heat-inactivated, pooled off-the-clot AB^+ human serum (Interstate Blood Bank or New York Blood Center), and 10 μg/mL gentamicin (Fisher). The parental P. falciparum Pf3D7^0087/N9 strain that has been adapted to proliferate in this humanized NSG mouse model was cultured in parallel as the drug-sensitive control strain. All compound susceptibility assays for the recrudescent lines and parental control strain were performed using 8% serum-containing medium. Parasite growth in each well was assessed after 72 h using flow cytometry of cultures stained with SYBR Green I and MitoTracker Deep Red (Supplementary Fig. S12). IC50 and IC90 values were derived from growth inhibition data using nonlinear regression analysis (GraphPad Prism 7) or linear interpolation (assays for recrudescent lines from humanized mice). Unless otherwise stated, assays were performed on four independent occasions with technical duplicates, and statistical comparisons were made using two-tailed Mann–Whitney U tests. Gated RBCs 97.0% Live parasites 3.80% A B Forward scatter (FSC-H) MitoTracker Deep Red Supplementary Fig. 12: Gating strategy for flow cytometry-based quantification of P. falciparum asexual blood stage parasite proliferation in drug susceptibility and growth rate assays. Intra-erythrocytic parasites were seeded at 0.3% - 0.8% parasitemia and 1% hematocrit for 72 hours in the presence of a range of drug concentrations that had been 2-fold serially diluted in duplicates along with drug-free controls. Cells were then labeled with 1× SYBR Green (Invitrogen) and 100 nM MitoTracker Deep Red FM (Invitrogen) as nuclear stain and vital dyes, respectively. Parasite survival was assessed by flow cytometry on an Intellicyt iQue3 (Essen Bioscience). Between 9,000 and 15,000 events were counted per sample. […] (A) Forward (FSC-H) and side scatter (SSC-H) gating of the total red blood cell (RBC) population, representing 97.0% of the total events counted. (B) Gating strategy used to quantify viable intracellular parasites, which are positively stained by both MitoTracker Deep Red and SYBR Green I and appear as events in the upper right gate (live parasites, 3.80% parasitemia). Uninfected erythrocytes appear in the lower left gate as MitoTracker Deep Red and SYBR Green I negative populations.

[2] = molecular target: T2, P. falciparum chloroquine resistance transporter (PfCRT), 7G8 isoform (Plasmodium falciparum, UniProt W7FI62); experiment: […] [3H]CQ uptake in PfCRT proteoliposomes; assay type: biochemical
T2 construct: gene CRT; purified PfCRT 7G8 reconstituted in proteoliposomes

[3] = tested on: T3, Plasmodium falciparum TAD_022; experiment: microbe, parasite or virus in culture; set-up: species or system P. falciparum 3D7^0087/N9 in human red blood cells; asexual blood stage growth inhibition in 8% human serum medium, flow cytometry; conditions: Erythrocyte, 72 h; for IC50: read-out: IC50 ± SEM (nM); for IC90: read-out: IC90 ± SEM (nM)
T3 construct: 3D7^0087/N9 (TAD_022)
Procedure: Susceptibility to all drugs tested in this study was measured by incubating asynchronous, ABS parasites plated at 0.2% to 0.3% parasitemia (or 0.8% for the poorly growing ZY19489-resistant lines harboring the pfcrt N246H allele) and 1% hematocrit at 37 °C in 96-well plates. The assays were set up across a range of drug concentrations with two-fold dilutions. For the experiments testing for susceptibility of recrudescent parasite lines that emerged in humanized NSG mice to ZY19489, M5717, MMV693183, or ferroquine, parasites were cultured at 2% hematocrit in human O^+ or A^+ RBCs in RPMI-1640 media, supplemented with 25 mM HEPES (Fisher), 50 mg/L hypoxanthine (Sigma Aldrich), 2 mM L-glutamine (Cambridge Isotope Laboratories, Inc.), 0.21% sodium bicarbonate (Sigma Aldrich), 0.5% (w/v) Albumax (Invitrogen), 8% filtered, heat-inactivated, pooled off-the-clot AB^+ human serum (Interstate Blood Bank or New York Blood Center), and 10 μg/mL gentamicin (Fisher). The parental P. falciparum Pf3D7^0087/N9 strain that has been adapted to proliferate in this humanized NSG mouse model was cultured in parallel as the drug-sensitive control strain. All compound susceptibility assays for the recrudescent lines and parental control strain were performed using 8% serum-containing medium. Parasite growth in each well was assessed after 72 h using flow cytometry of cultures stained with SYBR Green I and MitoTracker Deep Red (Supplementary Fig. S12). IC50 and IC90 values were derived from growth inhibition data using nonlinear regression analysis (GraphPad Prism 7) or linear interpolation (assays for recrudescent lines from humanized mice). Unless otherwise stated, assays were performed on four independent occasions with technical duplicates, and statistical comparisons were made using two-tailed Mann–Whitney U tests. To assess potential cross-resistance between M5717 and ZY19489, we tested three M5717-resistant lines (TAD_470, TAD_462, and TAD_464), which harbored distinct PfeEF2 mutations (I183M, P754S, and I182T, respectively), for susceptibility to ZY19489.

[4] = molecular target: T4, P. falciparum chloroquine resistance transporter (PfCRT), 7G8 + F145I isoform (Plasmodium falciparum, UniProt W7FI62, F145I); experiment: […] [3H]PPQ uptake in PfCRT proteoliposomes; assay type: biochemical
T4 construct: gene CRT; purified PfCRT 7G8 + F145I reconstituted in proteoliposomes

[5] = molecular target: T4, P. falciparum chloroquine resistance transporter (PfCRT), 7G8 + F145I isoform; experiment: inhibition of [3H]PPQ uptake in PfCRT proteoliposomes; assay type: biochemical; conditions: read-out: % inhibition of [3H]PPQ transport at 1 μM

T4 sequence (W7FI62 whole entry F145I, canonical isoform): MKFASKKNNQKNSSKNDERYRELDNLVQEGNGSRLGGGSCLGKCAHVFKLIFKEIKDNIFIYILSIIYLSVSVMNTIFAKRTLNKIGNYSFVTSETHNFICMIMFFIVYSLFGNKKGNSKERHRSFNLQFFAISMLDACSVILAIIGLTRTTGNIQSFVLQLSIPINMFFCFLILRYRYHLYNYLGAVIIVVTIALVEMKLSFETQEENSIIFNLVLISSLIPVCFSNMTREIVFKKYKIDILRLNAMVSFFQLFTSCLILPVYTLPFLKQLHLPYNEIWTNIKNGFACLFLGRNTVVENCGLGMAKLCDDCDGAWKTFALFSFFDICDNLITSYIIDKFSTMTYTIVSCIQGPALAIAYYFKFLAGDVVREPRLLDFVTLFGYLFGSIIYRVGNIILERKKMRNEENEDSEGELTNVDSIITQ
T2 sequence (W7FI62 whole entry, canonical isoform): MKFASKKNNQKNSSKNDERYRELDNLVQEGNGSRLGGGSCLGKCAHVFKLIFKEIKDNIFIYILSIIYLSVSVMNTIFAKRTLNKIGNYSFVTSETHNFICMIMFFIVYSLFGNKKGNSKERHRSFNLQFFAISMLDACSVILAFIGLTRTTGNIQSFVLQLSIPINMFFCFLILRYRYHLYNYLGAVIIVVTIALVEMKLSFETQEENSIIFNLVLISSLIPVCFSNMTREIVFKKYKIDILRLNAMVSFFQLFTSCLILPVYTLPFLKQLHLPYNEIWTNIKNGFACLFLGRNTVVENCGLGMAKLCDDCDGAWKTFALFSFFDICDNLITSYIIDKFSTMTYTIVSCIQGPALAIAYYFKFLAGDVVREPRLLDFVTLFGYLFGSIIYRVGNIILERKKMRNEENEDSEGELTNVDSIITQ

Compound `O=C1C(O)=C([C@H]2CC[C@H](c3ccc(Cl)cc3)CC2)C(=O)c2ccccc21` [ATQ, atovaquone] has an IC50 ([1]; read-out: ATQ IC50) of 2.5 ± 0.4 nM and an IC90 ([1]; read-out: ATQ IC90) of 5.3 ± 0.7 nM.
With `CCN(CC)CCCC(C)Nc1ccnc2cc(Cl)ccc12` (stereo not drawn) [CQ, chloroquine] the “100 nM [3H]CQ uptake in PfCRT proteoliposomes” value [2] was “[^3H]CQ transport by the CQ-resistant 7G8 isoform”, the IC50 ([1]; read-out: CQ IC50) was 104 ± 5.7 nM and the IC90 ([1]; read-out: CQ IC90) was 217 ± 11.3 nM. It also gave an IC50 ([1]; read-out: IC50 (nM)) of 94.6 ± 6.6 nM and an IC90 ([1]; read-out: IC90 (nM)) of 177 ± 24.1 nM.
With `CCNCc1cc(Nc2ccnc3cc(Cl)ccc23)ccc1O` [DEAQ, mono-desethylamodiaquine] the IC50 ([1]; read-out: DEAQ IC50) was 43.8 ± 5.9 nM and the IC90 ([1]; read-out: DEAQ IC90) was 78.7 ± 8.8 nM.
`C[C@H]1[C@@H](O)O[C@@H]2O[C@@]3(C)CC[C@H]4[C@H](C)CC[C@@H]1[C@@]24OO3` [DHA, dihydroartemisinin] gave an IC50 ([1]; read-out: DHA IC50) of 2.6 ± 0.2 nM and an IC90 ([1]; read-out: DHA IC90) of 4.7 ± 0.6 nM.
In the case of `CCCCN(CCCC)CC(O)c1cc(Cl)cc2c1-c1ccc(Cl)cc1/C2=C/c1ccc(Cl)cc1` (stereo not drawn) [LMF, lumefantrine], the IC50 ([1]; read-out: LMF IC50) is reported as 6 ± 1.2 nM and the IC90 ([1]; read-out: LMF IC90) is reported as 11.2 ± 1.8 nM.
`O=C(NCCN1CCCC1)c1cc(-c2ccc(CN3CCOCC3)cc2)nc2ccc(F)cc12` [M5717] showed an IC50 [3] of 0.4 ± 0.01 nM and an IC90 [3] of 0.8 ± 0.1 nM.
For `COc1ccc(C2=N[C@@H](c3ccc(Cl)cc3)[C@@H](c3ccc(Cl)cc3)N2C(=O)N2CCNC(=O)C2)c(OC(C)C)c1` [Nutlin-3], the IC50 ([1]; read-out: IC50 (nM)) was 5660 ± 511 nM and the IC90 ([1]; read-out: IC90 (nM)) was 9130 ± 714 nM.
For `Clc1ccc2c(N3CCN(CCCN4CCN(c5ccnc6cc(Cl)ccc56)CC4)CC3)ccnc2c1` [PPQ, piperaquine], the “100 nM [3H]PPQ uptake in PfCRT proteoliposomes” value [4] was “interference was also observed against [^3H]PPQ transport by the PPQ-resistant isoform 7G8 + F145I”, the IC50 ([1]; read-out: PPQ IC50) was 12 ± 1 nM and the IC90 ([1]; read-out: PPQ IC90) was 22.3 ± 4.6 nM.
`O=C1CCC(N2C(=O)c3ccccc3C2=O)C(=O)N1` (stereo not drawn) [Thalidomide] gave an IC50 ([1]; read-out: IC50 (nM)) of 85200 ± 5060 nM and an IC90 ([1]; read-out: IC90 (nM)) of 115700 ± 1110 nM.
`Cc1nc(Nc2ncc(N3CCN(C)[C@H](C)C3)c(Nc3cc(C)n(C)n3)n2)cc(C2CC2)c1F` [ZY19489] showed an IC50 [3] of 7.2 ± 0.9 nM, an IC90 [3] of 17.1 ± 1.1 nM and an inhibition at 1 µM [5] of 79%.
With `COC(=O)[C@H](CCCN=C(NC(=O)OCOC(=O)Cc1ccccc1)NC(=O)OCOC(=O)Cc1ccccc1)NS(=O)(=O)c1ccc(C)cc1` [pro-TAME] the IC50 ([1]; read-out: IC50) was 58400 ± 7100 nM and the IC90 ([1]; read-out: IC90) was 91000 ± 11300 nM.
